PubChem BioAssay AID2060346 (Molecular Pharmacology Branch, DTP, NCI, 2025)
Several values for one entry are separate records, joined by “and”; a condition that tells them apart may be missing. Identical values can stand only once. Activity calls are given as the source filed them. The calls were made as follows: active = viability on the fitted dose curve at most 10% of control; inactive = the rest.

Test system: CN0375-F725-PDC multi-cell spheroids, viability
Experiment: Anticancer human tumor CN0375-F725-PDC patient-derived colon carcinoma cell line growth inhibition [TAK]
Details: for viability, T/C: stronger effect = lower value
Excerpt: Combinatorial screen of targeted agents with TAK-243 and ipatasertib in multi-cell type tumor spheroids
A high-throughput screen of multi-cell type tumor spheroids was designed to identify active combinations of targeted small molecules and TAK-243 or ipatasertib. Complex spheroids include a stromal component modeled by human endothelial cells (HUVEC) and fibroblasts modeled by human mesenchymal stem cells (MSCs). The concentration ranges selected for each drug and investigational agent were based upon clinically achievable concentrations if the clinical Cmax of the agent was known.
Compounds. The drugs and investigational agents: TAK-243 (785004), ipatasertib (767898), everolimus (733504), selumetinib (741078), bortezomib (756655), trametinib (758246), ixazomib (758254), vemurafenib (761431), dabrafenib (764134), sapanisertib (764658), alpelisib (765974), and copanlisib (816437), were obtained from the National Cancer Institute (NCI) Developmental Therapeutics Program Chemical Repository. The FDA-approved anticancer drug set is available from the NCI Developmental Therapeutics Program. […] The stock solutions were prepared in dimethyl sulfoxide (DMSO, Sigma-Aldrich, St. Louis, MO, cat. D2650) at 800-fold the tested concentration and stored at -70 degrees C prior to their use. All drugs and investigational agents were tested over a range starting from a high concentration at or near the clinical Cmax and decreasing in half-log increments. If the clinical Cmax for an agent had not been determined, the highest concentration tested was 10 microM.
NCI60 Cell Culture. NCI60 cell lines were obtained from the NCI Developmental Therapeutics Program Tumor Repository. For each lot of cells, the Repository performed Applied Biosystems AmpFLSTR Identifiler testing with PCR amplification to confirm consistency with the published Identifier STR profile for each cell line. Cells were kept in continuous culture for no more than 20 passages. The optimal seeding densities for each of the cell lines at each time point assessed were determined prior to performing the concentration response studies. Briefly, the NCI60 human tumor lines were grown as monolayers in RPMI 1640 medium supplemented with 10% FBS and 2 mmol/L L-glutamine.
An additional 2 lines were from the NCI60 cell line panel including melanomas, MALME-3M and SK-MEL-2. Pooled donor human umbilical vein endothelial cells (HUVEC, Lonza, cat. CC-2519) and human mesenchymal stem cells (hMSC, Lonza, cat. PT-2501) were purchased from Lonza (Walkersville, MD).
PDMR cell lines were grown in complete medium (DC medium): Dulbecco's modified Eagle's medium (DMEM)/F12 supplemented with 5% fetal bovine serum (FBS), 2 mM L-glutamine, 100 U/mL penicillin and 100 µg/ml streptomycin, 0.4 µg/ml hydrocortisone, 10 ng/ml epidermal growth factor (EGF) recombinant human protein, 24 µg/mL adenine, and 0.1 mg/mL primocin. During culture from frozen stock vials, PDMR cells were cultured in the same medium containing 10 µM Y-27632 (see Table 3). The PDCs were cultured in complete DMEM/F12 media without 10 microM Y-27632 dihydrochloride for at least two passages prior to the screen. The pooled donor HUVEC and hMSC were cultured in endothelial cell growth medium 2 (PromoCell, Heidelberg, Germany, cat. C-22011) and mesenchymal stem cell growth medium 2 (PromoCell, cat. C-28009), respectively. For all experiments, HUVEC and hMSC were used at passages </=5.
For the pre-screen, cell seeding densities were determined from a titration spanning the range from 5,000 to 313 cells per well. The mct-spheroids including 60% malignant cells, 25% HUVEC and 15% MSC dispensed as a mixture into U-bottom Ultra-Low Attachment 384-well plates (Corning, NY)
High-throughput Drug Combination Screening.
Prior to their inoculation into 384-well plates, malignant cells, HUVEC, and hMSC were removed from T flasks using TrypLE express (Thermo Fisher Scientific, cat. 12605036) and harvested by centrifugation for 5 min at 233 x g. […]

[1] = curve of first compound, second compound 0.3 µM
[2] = curve of first compound, second compound 0.949 µM
[3] = curve of first compound, second compound 3 µM
[4] = curve of first compound, second compound 9.49 µM
[5] = curve of first compound, second compound 30 µM
[6] = second compound 0.3 µM, first compound 0.000316 µM
[7] = second compound 0.3 µM, first compound 0.001 µM
[8] = second compound 0.3 µM, first compound 0.00316 µM
[9] = second compound 0.3 µM, first compound 0.01 µM
[10] = second compound 0.949 µM, first compound 0.000316 µM
[11] = second compound 0.949 µM, first compound 0.001 µM
[12] = second compound 0.949 µM, first compound 0.00316 µM
[13] = second compound 0.949 µM, first compound 0.01 µM
[14] = second compound 3 µM, first compound 0.000316 µM
[15] = second compound 3 µM, first compound 0.001 µM
[16] = second compound 3 µM, first compound 0.00316 µM
[17] = second compound 3 µM, first compound 0.01 µM
[18] = second compound 9.49 µM, first compound 0.000316 µM
[19] = second compound 9.49 µM, first compound 0.001 µM
[20] = second compound 9.49 µM, first compound 0.00316 µM
[21] = second compound 9.49 µM, first compound 0.01 µM
[22] = second compound 30 µM, first compound 0.000316 µM
[23] = second compound 30 µM, first compound 0.001 µM
[24] = second compound 30 µM, first compound 0.00316 µM
[25] = second compound 30 µM, first compound 0.01 µM
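For IC50 in this document: spheroids exposed to drugs for seven days.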
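For viability, T/C in this document: spheroids exposed to drugs for seven days.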

## COC1CC2CCC(C)C(O)(O2)C(=O)C(=O)N2CCCCC2C(=O)OC(C(C)CC2CCC(OCCO)C(OC)C2)CC(=O)C(C)C=C(C)C(O)C(OC)C(=O)C(C)CC(C)C=CC=CC=C1C (stereo unspecified) + CC(C)NCC(C(=O)N1CCN(c2ncnc3c2C(C)CC3O)CC1)c1ccc(Cl)cc1
[1]
  IC50: > 100 nM
[2]
  IC50: > 100 nM
[3]
  IC50: > 100 nM
[4]
  IC50: > 100 nM
[5]
  IC50: > 100 nM
[6]
  viability, T/C: 97.5%
[7]
  viability, T/C: 95.1%
[8]
  viability, T/C: 89.1%
[9]
  viability, T/C: 82.5%
Second compound 0.3 µM, first compound 0.0316 µM
  viability, T/C: 81.1%
Second compound 0.3 µM, first compound 0.1 µM
  viability, T/C: 81.1%
[10]
  viability, T/C: 99%
[11]
  viability, T/C: 94.8%
[12]
  viability, T/C: 84.5%
[13]
  viability, T/C: 81.1%
Second compound 0.949 µM, first compound 0.0316 µM
  viability, T/C: 78.3%
Second compound 0.949 µM, first compound 0.1 µM
  viability, T/C: 78.2%
[14]
  viability, T/C: 88.7%
[15]
  viability, T/C: 83.9%
[16]
  viability, T/C: 83.9%
[17]
  viability, T/C: 77.8%
Second compound 3 µM, first compound 0.0316 µM
  viability, T/C: 77.4%
Second compound 3 µM, first compound 0.1 µM
  viability, T/C: 75.9%
[18]
  viability, T/C: 83.3%
[19]
  viability, T/C: 84.1%
[20]
  viability, T/C: 80.7%
[21]
  viability, T/C: 71.1%
Second compound 9.49 µM, first compound 0.0316 µM
  viability, T/C: 76%
Second compound 9.49 µM, first compound 0.1 µM
  viability, T/C: 71%
[22]
  viability, T/C: 71.3%
[23]
  viability, T/C: 76.8%
[24]
  viability, T/C: 72.2%
[25]
  viability, T/C: 63.5%
Second compound 30 µM, first compound 0.0316 µM
  viability, T/C: 75.8%
Second compound 30 µM, first compound 0.1 µM
  viability, T/C: 68.5%

## COC1CC2CCC(C)C(O)(O2)C(=O)C(=O)N2CCCCC2C(=O)OC(C(C)CC2CCC(OCCO)C(OC)C2)CC(=O)C(C)C=C(C)C(O)C(OC)C(=O)C(C)CC(C)C=CC=CC=C1C (stereo unspecified)
Compound 0.000316 µM
  viability, T/C: 108% and 127%
Compound 0.001 µM
  viability, T/C: 103% and 118%
Compound 0.00316 µM
  viability, T/C: 90.9% and 96.7%
Compound 0.01 µM
  viability, T/C: 88.1% and 93.2%
Compound 0.0316 µM
  viability, T/C: 84.9% and 77.9%
Compound 0.1 µM
  viability, T/C: 83.9% and 82.5%
Curve of compound
  IC50: > 100 nM

## CC(C)CC(NC(=O)C(Cc1ccccc1)NC(=O)c1cnccn1)B(O)O (stereo unspecified)
Compound 31.6 pM
  viability, T/C: 112% and 110%
Compound 0.0001 µM
  viability, T/C: 98.7% and 113%
Compound 0.000316 µM
  viability, T/C: 104% and 103%
Compound 0.001 µM
  viability, T/C: 109% and 105%
Compound 0.00316 µM
  viability, T/C: 103% and 106%
Compound 0.01 µM
  viability, T/C: 34.9% and 35.3%
Curve of compound
  IC50: 7.76 nM and 7.87 nM

## CC(C)(C)c1nc(-c2cccc(NS(=O)(=O)c3c(F)cccc3F)c2F)c(-c2ccnc(N)n2)s1
Compound 0.0316 µM
  viability, T/C: 126% and 115%
Compound 0.1 µM
  viability, T/C: 130% and 129%
Compound 0.316 µM
  viability, T/C: 126% and 133%
Compound 1 µM
  viability, T/C: 112% and 127%
Compound 3.16 µM
  viability, T/C: 104% and 119%
Compound 10 µM
  viability, T/C: 110% and 107%
Curve of compound
  IC50: > 10000 nM

## CC(C)CC(NC(=O)C(Cc1ccccc1)NC(=O)c1cnccn1)B(O)O (stereo unspecified) + CC(C)NCC(C(=O)N1CCN(c2ncnc3c2C(C)CC3O)CC1)c1ccc(Cl)cc1
[1]
  IC50: 7.39 nM
[2]
  IC50: 7.9 nM
[3]
  IC50: 7.86 nM
[4]
  IC50: 5.85 nM
[5]
  IC50: 2.49 nM
Second compound 0.3 µM, first compound 31.6 pM
  viability, T/C: 100%
Second compound 0.3 µM, first compound 0.0001 µM
  viability, T/C: 99%
[6]
  viability, T/C: 93.6%
[7]
  viability, T/C: 99.5%
[8]
  viability, T/C: 92.1%
[9]
  viability, T/C: 34.9%
Second compound 0.949 µM, first compound 31.6 pM
  viability, T/C: 99.6%
Second compound 0.949 µM, first compound 0.0001 µM
  viability, T/C: 101%
[10]
  outcome: inactive
[11]
  viability, T/C: 90.3%
[12]
  viability, T/C: 93%
[13]
  viability, T/C: 38.8%
Second compound 3 µM, first compound 31.6 pM
  viability, T/C: 89.3%
Second compound 3 µM, first compound 0.0001 µM
  viability, T/C: 93%
[14]
  viability, T/C: 91.8%
[15]
  viability, T/C: 93.1%
[16]
  viability, T/C: 82.8%
[17]
  viability, T/C: 41.2%
Second compound 9.49 µM, first compound 31.6 pM
  viability, T/C: 85.2%
Second compound 9.49 µM, first compound 0.0001 µM
  viability, T/C: 95.3%
[18]
  viability, T/C: 87.2%
[19]
  viability, T/C: 93.6%
[20]
  viability, T/C: 76.7%
[21]
  viability, T/C: 26.6%
Second compound 30 µM, first compound 31.6 pM
  viability, T/C: 72.3%
Second compound 30 µM, first compound 0.0001 µM
  viability, T/C: 86.8%
[22]
  viability, T/C: 84.4%
[23]
  viability, T/C: 76.6%
[24]
  viability, T/C: 42.9%
[25]
  viability, T/C: 9.84%
